The text below walks through data of patent US5248796A, “Taxol derivatives” (Bristol-Myers Squibb Company, priority 1992, dated 1993).

Test [1] deals with HCT-116 human colon carcinoma cells. Nature of the test: In vitro cytotoxicity, XTT assay, HCT-116 human colon carcinoma cells. The test is classed as cell-based. As to conditions: read-out: IC50 HCT-116. For orientation: Tetrazolium dyes change colour on reduction, which living cells bring about.
The test system of test [2] is HCT-116/VM46 human colon carcinoma cells. Nature of the test: In vitro cytotoxicity, XTT assay, HCT-116/VM46 cells (teniposide-resistant, multidrug resistance phenotype). The test is classed as cell-based. As to conditions: for IC50: Homo sapiens, read-out: IC50 HCT-116/VM46; for fold resistance relative to HCT116 cells: 4320 min.
For test [3] the following is noted: background statement; cited from earlier work.
[4] abbreviates: HCT-116/VM46 relative to HCT116, value in parenthesis.
[5] abbreviates: HCT-116/VM46, teniposide-resistant, multidrug resistance phenotype, XTT, 72 hours, 37° C.

SMILES strings stand for the structures. Like-named read-outs stand apart in the source and are kept apart here.

As to `CC(=O)O[C@H]1C(=O)[C@@]2(C)[C@H]([C@H](OC(=O)c3ccccc3)[C@]3(O)C[C@H](OC(=O)[C@H](O)[C@@H](NC(=O)c4ccccc4)c4ccccc4)C(C)=C1C3(C)C)[C@]1(OC(C)=O)CO[C@@H]1C[C@@H]2O` [Taxol], the IC50 in test [1] (HCT-116, 72 h) was found to be 4 nM; in test [2] (HCT-116/VM46, 72 h), 440 nM. In test [2] (human, hct-116/vm46 cells), the “fold resistance relative to HCT116 cells” value is recorded as 124 fold. Besides, the “antitumor activity in in vivo animal models” value in test [3] was “excellent antitumor activity”.

Turning to `C=C1C2=CC(=O)[C@]3(C)[C@@H](OC(=O)C(F)Cl)C[C@H]4OC[C@@]4(OC(C)=O)[C@H]3[C@H](OC(=O)c3ccccc3)[C@](O)(C[C@@H]1OC(=O)[C@H](O)[C@@H](NC(=O)c1ccccc1)c1ccccc1)C2(C)C` (some centres unmarked) [Example 3, 7-O-chlorofluoroacetyl-10-desacetoxy-11,12-dihydrotaxol-10,12(18)-diene], in test [1] (HCT-116, 72 h), the IC50 is 38 nM.

On to `C=C1C2=CC(=O)[C@]3(C)[C@H](O)C[C@H]4OC[C@@]4(OC(C)=O)[C@H]3[C@H](OC(=O)c3ccccc3)[C@](O)(C[C@@H]1OC(=O)[C@H](O)[C@@H](NC(=O)c1ccccc1)c1ccccc1)C2(C)C` [Example 16, 10-Desacetoxy-11,12-dihydro-7-epitaxol-10,12(18)-diene], for which the IC50 in test [1] (HCT-116, 72 h) worked out at 40 nM.

As to `CC(=O)O[C@@]12CO[C@@H]1C[C@H](OC(=O)C(F)Cl)[C@@]1(C)C(=O)CC3=C(C)[C@@H](OC(=O)[C@H](O)[C@@H](NC(=O)c4ccccc4)c4ccccc4)C[C@@](O)([C@@H](OC(=O)c4ccccc4)[C@H]21)C3(C)C` (some centres unmarked) [Example 4, 7-O-chlorofluoroacetyl-10-desacetoxytaxol], the IC50 in test [1] (HCT-116, 72 h) was 8 nM.

Regarding `CC(=O)O[C@@]12CO[C@@H]1C[C@@H](O)[C@@]1(C)C(=O)CC3=C(C)[C@@H](OC(=O)[C@H](O)[C@@H](NC(=O)c4ccccc4)c4ccccc4)C[C@@](O)([C@@H](OC(=O)c4ccccc4)[C@H]21)C3(C)C` [Example 13, 7-Epi-10-desacetoxytaxol], the IC50 in test [1] (HCT-116, XTT, 72 hours, 37° C.) is greater than 98 nM; in test [2] (setting [5]), 3090 nM. For the same molecule, the “fold resistance relative to HCT116 cells” value in test [2] (setting [4]) was less than 32 fold.

For the molecule `C=C1C2=CC(=O)[C@@]3(C)[C@H]([C@H](OC(=O)c4ccccc4)[C@](O)(C[C@@H]1OC(=O)[C@H](O)[C@@H](NC(=O)c1ccccc1)c1ccccc1)C2(C)C)[C@]1(OC(C)=O)CO[C@@H]1C[C@@H]3O` [Example 9, 10-Desacetoxy-11,12-dihydrotaxol-10,12(18)-diene], in test [1] (HCT-116, 72 h), the IC50 was determined as 38 nM.

For the molecule `CC(=O)O[C@@]12CO[C@@H]1C[C@H](O)[C@@]1(C)C(=O)CC3=C(C)[C@@H](OC(=O)[C@H](O)[C@@H](NC(=O)c4ccccc4)c4ccccc4)C[C@@](O)([C@@H](OC(=O)c4ccccc4)[C@H]21)C3(C)C` [Example 10, 10-Desacetoxytaxol], the IC50 turned out to be 8 nM in test [1] (HCT-116, XTT, 72 hours, 37° C.) and 1220 nM in test [2] (setting [5]). For the same molecule, in test [2] (setting [4]), the “fold resistance relative to HCT116 cells” value worked out at 153 fold.
